Reference: US20090221520A1, “Polyene Antibiotics, Compositions Containing Said Antibiotics, Method and Micro-Organisms Used to Obtain Same and Applications Thereof” (priority 2005, published 2009)

Assays:
[1] = system: Penicillium chrysogenum, Candida albicans, Aspergillus niger, Candida krusei and Cryptococcus neoformans; assay: Antifungal activity trials, paper discs on bioassay plates; type: cell-based; conditions: for antifungal activities compared with the end products rimocidin (IIa) and CE-108 (IIb): measured as in example 1, Example 2; for antifungal activity (in words): paper disc trials, Example 1; for increase of antifungal activity by substitution of the free carboxyl- group for the amide- group: versus parent tetraene, all tested fungi, paper discs 9 mm
Protocol: P. chysogenum, C. krusei, A. niger, C. albicans and C. neoformans, fungi used for testing antifungal activity, were grown in MPDA medium (composition: 2% malt extract, 2% glucose, 0.1% Bactopeptone).
(§1) The antifungal activity of the novel amidated tetraenes [rimocidin B (I-1a) and CE-108B (I-1b)] was tested against various fungi: Penicillium chrysogenum, Candida albicans, Aspergillus niger, Candida krusei and Cryptococcus neoformans. Increasing quantities of the different tetraenes, dissolved in methanol, were applied to paper discs (9 mm in diameter); following the application, the discs were dried and placed on bioassay plates on which the corresponding test fungi had previously been spread. The activity of these amidated tetraenes was compared with that of the molecules from which they derived [[…]], showing that the biological activity of the amidated polyenes was substantially greater than that of the corresponding tetraenes that they derived from (FIG. 2) in all tested fungi. In all cases, the substitution of the free carboxyl- group for the amide- group increased the antifungal activity by approximately fourfold.
The antifungal activity of the novel non-carboxylated tetraenes rimocidin C (IIIa) and CE-108C (IIIb) was measured against Penicillium chrysogenum, Candida albicans, Aspergillus niger, Candida krusei and Cryptococcus neoformans, in comparison with that of the native tetraenes rimocidin (IIa) and CE-108 (IIb).

[2] = system: Human erythrocytes; assay: Trials of haemolytic activity (toxicity) on human blood; type: cell-based; conditions: for haemolytic activity as a total percentage of haemolysis: 2.5% human blood, 37° C., 30 minutes, Example 1
Protocol: The trials were conducted according to the method described by Gómez-Gómez et al. (Gómez-Gómez, J. M. et al., 1996, Mol. Microbiol. 19: 909-910). The samples of polyenes were first dried and then dissolved in DMSO at an estimated concentration of 10 to 30 mg/mL. Increasing quantities of the different polyenes were taken to a final volume of 100 μL of DMSO and mixed by means of gentle stirring with 500 μL of PBS buffer (Gómez-Gómez, J. M. et al., 1996, cited earlier), containing 2.5% of human blood, or eventually that of horse. After incubation at 37° C. for 30 minutes without stirring, the cells were sedimented by centrifugation and the degree of haemolysis was assessed by means of measuring the absorption at 545 nm. The values corresponding to the total haemolysis were estimated with a suspension of 2.5% of horse blood in distilled water. The human blood (fundamentally erythrocytes) was obtained from local blood banks (Hospital Ramón y Cajal, Madrid); the horse blood came from Oxoid (defibrinated blood). The amphotericin B and the nystatin were obtained from Sigma (catalogue numbers A-4888 and N-3503, respectively) and the pimaricin came from Calbiochem (527962). All these polyenes were tested directly from commercial samples, without any additional purification
In the above experiments it is clear that the modification of the novel amidated polyenes, produced by the genetic recombinants of Streptomyces diastaticus var. 108 gave rise to compounds with high antifungal activity. […] Human erythrocytes were used as cell models for this study (Cybulska B, et al., 2000, Acta Biochim. Pol. 47: 121-131; Gómez-Gómez, J. M. et al., 1996, Mol. Microbiol. 19: 909-910). The haemolytic activity of the novel compounds was assessed (see the section relating to Experimental Methods) against rimocidin and CE-108; amphotericin B and nystatin A were also included. […] It is worth while highlighting the differences in toxicity observed between CE-108 (IIb) and CE-108B (I-1b) with rimocidin (IIa) and rimocidin B (I-1a); while 50% of haemolysis is achieved with 40 to 60 nanomoles for the last two polyenes, a concentration of CE-108 and is amide 6 or 7 times greater is required in order to achieve the same degree of haemolysis.
The trials were conducted on human blood enriched in eritrocytes, as described previously in Example 1.
In order to measure whether other pharmacological properties of the novel tetraenes were different, haemolytic activity trials were conducted and compared with the parent compounds. Human eritrocytes, were used for these tests. It can be pointed out that although the antifungal activities of rimocidin (IIa) and rimocidin C (IIIa) were similar, their toxicities (measured in terms of haemolytic activity) were 2.5-5 times lower for rimocidin C (IIIa) than for rimocidin (IIa).

[3] = system: Penicillium chrysogenum; assay: Antifungal activity of pimaricin and AB-400 towards P. chrysogenum; type: cell-based; conditions: for antifungal activity at the tested concentration: P. chrysogenum, a total of 200 ng added in each test
Protocol: RGU5.3. […] RGU5.3 grown in medium with acetate (FIG. 3A) or glucose (FIG. 3B) as source of carbon, respectively. FIG. 3C illustrates the antifungal activity of pimaricin (IVa) and AB-400 (IVb) towards P. chrysogenum; the samples of polyenes applied were (1): commercial pimaricin (Calbiochem […]), (2): total extract of the fermentation culture of S. sp. RGU5.3 grown in glucose medium; (3) purified AB-400 coming from S. sp. RGU5.3 and (4) pimaricin coming from S. sp. RGU5.3; a total of 200 ng. were added in each test.
as §1
The same results were obtained comparing pimaricin (IVa) and its amidated derivative AB-400 (IVb). Both compounds were purified starting from the isolated strain Streptomyces sp. RGU5.3, as indicated in the section on Experimental Methods. […] In this way, using a fermentation culture containing glucose as the source of carbon and not sodium acetate, the pimaricin/AB-400 balance is 70/30; when the same medium is supplemented with sodium acetate, the production profile is reversed, being AB-400 (IVb) the main polyene compound produced (FIG. 3). […]

[4] = Solubility

**Q.** Which “antifungal activities compared with the end products rimocidin (IIa) and CE-108 (IIb)” value [1] does the source give for “14-decarboxy-methyl-CE-108 [CE-108C (IIIb)]” here?
**A.** Its value is “not significantly different”.

**Q.** For “14-decarboxy-14-methyl-rimocidin [Rimocidin C (IIIa)]”, which “toxicity (measured in terms of haemolytic activity), times lower than for rimocidin (IIa)” value [2] is on record?
**A.** The value was 2.5-5 times.

**Q.** What about the “antifungal activities compared with the end products rimocidin (IIa) and CE-108 (IIb)” value [1] of the same molecule?
**A.** The value was “not significantly different”.

**Q.** For CE-108B [CE-108B (I-1b)], which “concentration required to achieve the same degree (50%) of haemolysis, times greater than for rimocidin and rimocidin B” value [2] is on record?
**A.** The value was 6 or 7 times.

**Q.** And the “haemolytic activity compared with the corresponding tetraene it derived from” value [2]?
**A.** The value was “not significantly different”.

**Q.** What about the “haemolytic activity, times lower than that of rimocidin” value [2] of the same molecule?
**A.** The value was 6 or 7 times.

**Q.** What about the “antifungal activity (in words)” value [1] of the same molecule?
**A.** Its value is “almost as high as that of rimocidin”.

**Q.** What about the “increase of antifungal activity by substitution of the free carboxyl- group for the amide- group” value [1] of the same molecule?
**A.** Its value is “approximately fourfold”.

**Q.** With rimocidin B [Rimocidin B (I-1a)] as the molecule, how does the “haemolytic activity compared with the corresponding tetraene it derived from” value [2] read?
**A.** Its value is “not significantly different”.

**Q.** What about the “quantity with which 50% of haemolysis is achieved” value [2] of the same molecule?
**A.** The value was 40 to 60 nmol.

**Q.** What about the “increase of antifungal activity by substitution of the free carboxyl- group for the amide- group” value [1] of the same molecule?
**A.** The value was “approximately fourfold”.

**Q.** With `C[C@@H]1C\C=C/C=C\C=C/C=C[C@H](O[C@@H]2O[C@H](C)[C@@H](O)[C@H](N)[C@@H]2O)C[C@@H]2O[C@](O)(C[C@@H](O)C[C@H]3O[C@@H]3/C=C\C(=O)O1)C[C@H](O)[C@H]2C(N)=O` [AB-400 (IVb), AB-400] as the molecule, how does the “antifungal activity at the tested concentration” value [3] read?
**A.** Its value is “highly active”.

**Q.** And the “difference in antifungal activity between AB-400 and pimaricin” value ([3]; Penicillium chrysogenum)?
**A.** Its value is ~1 order of magnitude.

**Q.** And the “haemolytic activity of AB-400 compared with commercial pimaricin” value [2]?
**A.** Its value is “did not show significant differences”.

**Q.** What about the “solubility compared with the parent / non-amidated compound” value [4] of the same molecule?
**A.** Its value is “increase in their solubility”.

**Q.** For `CCC1C(=O)O[C@H](C)C/C=C/C=C/C=C/C=C/[C@H](OC2OC(C)C(O)C(N)C2O)C[C@@H]2O[C@](O)(CC(O)CCCC(=O)CC1O)C[C@H](O)[C@H]2C(=O)O` (stereo partly drawn) [CE-108 (IIb), CE-108], which “concentration required to achieve the same degree (50%) of haemolysis, times greater than for rimocidin and rimocidin B” value [2] is on record?
**A.** Its value is 6 or 7 times.

**Q.** What about the “antifungal activity (in words)” value [1] of the same molecule?
**A.** The value was “low”.

**Q.** Which results are given for `C[C@@H]1[C@H](O)[C@@H](C)/C=C/C=C/CC/C=C/C=C/C=C/C=C/C(O[C@H]2O[C@H](C)[C@@H](O)[C@H](N)[C@@H]2O)CC2O[C@](O)(CC(O)C(O)CCC(O)CC(O)CC(O)CC(=O)O[C@H]1C)CC(O)C2C(=O)O` (stereo partly drawn) [Nystatin A, nystatin A]?
**A.** haemolytic activity as a total percentage of haemolysis ([2]; 20 nanomoles of polyene): 2.20%; haemolytic activity as a total percentage of haemolysis ([2]; 40 nanomoles of polyene): 49.53%; haemolytic activity as a total percentage of haemolysis ([2]; 60 nanomoles of polyene): 76.80%; haemolytic activity as a total percentage of haemolysis ([2]; 80 nanomoles of polyene): 92.79%; haemolytic activity as a total percentage of haemolysis ([2]; 100 nanomoles of polyene): 100.00%

**Q.** Which “antifungal activity at the tested concentration” value [3] does the source give for `C[C@@H]1C/C=C/C=C/C=C/C=C/[C@H](O[C@@H]2O[C@H](C)[C@@H](O)[C@H](N)[C@@H]2O)C[C@@H]2O[C@](O)(C[C@@H](O)C[C@H]3O[C@@H]3/C=C/C(=O)O1)C[C@H](O)[C@H]2C(=O)O` [pimaricin (IVa), pimaricin] here?
**A.** The value was “no antifungal activity was observed”.

**Q.** Which “quantity with which 50% of haemolysis is achieved” value [2] does the source give for `CCC[C@@H]1C/C=C/C=C/C=C/C=C/[C@H](O[C@@H]2O[C@H](C)[C@@H](O)[C@H](N)[C@@H]2O)C[C@@H]2O[C@](O)(C[C@@H](O)CCCC(=O)C[C@@H](O)[C@H](CC)C(=O)O1)C[C@H](O)[C@H]2C(=O)O` [Rimocidin (IIa), rimocidin] here?
**A.** The value was 40 to 60 nmol.
